Data reported in ChEMBL document CHEMBL1201862, “PubChem BioAssay data set” (2004).
Activity calls are given as the source filed them.

Tests used:
[1] = target: Eukaryotic translation initiation factor 4E (Mus musculus, UniProt P63073); assay: blockers of eIF4G binding by eIF4E – biochemical, TR-FRET, dose response (AID 855); assay type: functional;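 note: potency for disrupting eIF4E binding to eIF4GI seen as loss of FRET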
[2] = HepG2 cell cytotoxicity, dose response, cytotoxicity control for non-replicating M. tuberculosis project (AID 489018); assay type: functional; details: Mycobacterium tuberculosis
[3] = THP-1 cell cytotoxicity, dose response, cytotoxicity control for non-replicating M. tuberculosis project (AID 489025); assay type: functional
Aminopeptidase N = target: T1, Aminopeptidase N (Plasmodium falciparum FcB1/Columbia, UniProt O96935); assay: malaria alanyl aminopeptidase activity blockers – biochemical, fluorogenic H-Leu-NHMec substrate, 1536-well (AID 1445); design: species or system Plasmodium falciparum 3D7, 3D7
T1 sequence (O96935 whole entry): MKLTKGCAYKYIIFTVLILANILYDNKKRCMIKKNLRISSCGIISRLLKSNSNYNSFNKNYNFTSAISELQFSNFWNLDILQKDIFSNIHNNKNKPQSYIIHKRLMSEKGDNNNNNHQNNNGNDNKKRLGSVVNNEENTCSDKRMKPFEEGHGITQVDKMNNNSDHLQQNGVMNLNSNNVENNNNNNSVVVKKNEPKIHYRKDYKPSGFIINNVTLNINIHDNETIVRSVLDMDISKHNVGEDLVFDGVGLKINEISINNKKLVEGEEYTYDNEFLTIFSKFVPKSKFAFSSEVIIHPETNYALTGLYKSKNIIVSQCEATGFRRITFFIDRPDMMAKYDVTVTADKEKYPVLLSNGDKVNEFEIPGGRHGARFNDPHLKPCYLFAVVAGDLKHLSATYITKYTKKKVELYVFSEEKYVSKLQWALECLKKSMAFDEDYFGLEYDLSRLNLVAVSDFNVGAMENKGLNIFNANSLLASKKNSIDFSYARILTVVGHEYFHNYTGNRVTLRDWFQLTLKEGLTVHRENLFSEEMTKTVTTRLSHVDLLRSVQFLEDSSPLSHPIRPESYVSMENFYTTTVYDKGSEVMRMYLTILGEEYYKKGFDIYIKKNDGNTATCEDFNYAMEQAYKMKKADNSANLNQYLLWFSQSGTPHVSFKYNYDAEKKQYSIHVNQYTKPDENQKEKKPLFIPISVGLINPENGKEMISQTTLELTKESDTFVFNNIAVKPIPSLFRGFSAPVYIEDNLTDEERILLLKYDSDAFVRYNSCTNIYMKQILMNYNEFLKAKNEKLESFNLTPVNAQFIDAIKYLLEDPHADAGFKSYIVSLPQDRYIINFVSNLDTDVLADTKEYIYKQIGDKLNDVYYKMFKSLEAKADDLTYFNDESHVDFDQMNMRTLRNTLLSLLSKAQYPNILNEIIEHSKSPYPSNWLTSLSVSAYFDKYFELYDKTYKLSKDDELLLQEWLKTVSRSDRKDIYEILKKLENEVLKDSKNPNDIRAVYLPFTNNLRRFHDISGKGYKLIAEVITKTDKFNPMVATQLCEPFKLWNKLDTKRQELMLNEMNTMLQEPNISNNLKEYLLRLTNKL

Bcl-2-like protein 10 = target: T2, Bcl-2-like protein 10 (Homo sapiens, UniProt Q9HD36); assay: Bcl-B/TR3 peptide binding disruption – biochemical, fluorescence polarization, FITC-TR3 peptide, selectivity assay for Bfl-1 inhibitor project, primary screen (AID 748);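 note: fluorescence polarization from a fluorescein-labelled TR3 peptide binding purified Bcl-B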
T2 sequence (Q9HD36 whole entry): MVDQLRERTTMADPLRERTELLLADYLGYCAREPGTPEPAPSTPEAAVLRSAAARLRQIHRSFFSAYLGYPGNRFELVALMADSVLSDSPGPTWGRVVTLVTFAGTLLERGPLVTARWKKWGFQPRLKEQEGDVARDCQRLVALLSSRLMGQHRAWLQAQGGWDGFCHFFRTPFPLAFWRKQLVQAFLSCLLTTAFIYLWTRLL

[4] = target: G-protein coupled receptor 55 (Homo sapiens, UniProt Q9Y2T6); assay: inhibition of LPI-stimulated GPR55 beta-arrestin translocation – imaging, U2OS, beta-arrestin-GFP, LPI agonist, primary screen (AID 2013); assay type: functional;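 note: antagonist potency measured as reduced agonist-driven arrestin aggregation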
[5] = target: DNA dC->dU-editing enzyme APOBEC-3G (Homo sapiens, UniProt Q9HC16); assay type: functional;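 note: Dose-response counterscreen measuring inhibition of APOBEC3G DNA deaminase activity, run while confirming APOBEC3A inhibitors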
[6] = target: DNA dC->dU-editing enzyme APOBEC-3A (Homo sapiens, UniProt P31941); assay: Dose Response confirmation of small molecule APOBEC3A DNA Deaminase Inhibitors via a fluorescence-based single-stranded DNA deaminase assay. [Related pubchem assays (depositor defined):AID493011, AID493024]; assay type: functional
[7] = Luminescence Cell-Based Dose Response HTS to Identify Activators of Luciferase Translation or Activity in H4 […] Cells. [Related pubchem assays: 1829 (Project Summary), 1814 (Primary HTS)]; assay type: functional
[8] = Luminescence Cell-Based Dose Response to Identify Activators of Luciferase Translation or Activity in H4-C Neuroglioblastoma Cells. [Related pubchem assays: 1829 (Project Summary), 1814 (Primary HTS)]; assay type: functional
[9] = Luminescence Cell-Based Dose Response to Identify Activators of 5'UTR Stem-Loop Driven Prion Protein mRNA Translation in H4-C Neuroglioblastoma Cells. [Related pubchem assays: 1829 (Project Summary), 1814 (Primary HTS)]; assay type: functional
[10] = Luminescence Cell-Based Dose Confirmation to Identify Activators of 5'UTR Stem-Loop Driven Alpha-Synuclein mRNA Translation in H4 Neuroglioblastoma Cells. [Related pubchem assays: 1829 (Project Summary), 1814 (Primary HTS)]; assay type: functional
cells = assay type: functional
[11] = Luminescence Cell-Based Dose Confirmation HTS to Identify Activators of 5'UTR Stem-Loop Driven Alpha-Synuclein mRNA Translation in H4 Neuroglioblastoma Cells. [Related pubchem assays: 1829 (Project Summary), 1814 (Primary HTS)]; assay type: functional
H4 = assay: Luminescence Cell-Based Dose Response HTS to Identify Activators of 5'UTR Stem-Loop Driven Prion Protein mRNA Translation in H4 Neuroglioblastoma Cells. [Related pubchem assays: 1829 (Project Summary), 1814 (Primary HTS)]; assay type: functional; details: Homo sapiens
[12] = target: T3, Heat shock factor protein 1 (Mus musculus, UniProt P38532); assay: enhancement of HSF1-driven luciferase signal – cell-based, NIH3T3, luminescence, dose retest, confirmation (AID 435004); assay type: functional;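 note: stress induced by proteasome inhibitor MG132 added 30 min after compound; luciferase reporter driven by HSF1 response element in NIH3T3 cells; actives raise luminescence as potentiators of the MG132 stress response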
T3 sequence (P38532 whole entry): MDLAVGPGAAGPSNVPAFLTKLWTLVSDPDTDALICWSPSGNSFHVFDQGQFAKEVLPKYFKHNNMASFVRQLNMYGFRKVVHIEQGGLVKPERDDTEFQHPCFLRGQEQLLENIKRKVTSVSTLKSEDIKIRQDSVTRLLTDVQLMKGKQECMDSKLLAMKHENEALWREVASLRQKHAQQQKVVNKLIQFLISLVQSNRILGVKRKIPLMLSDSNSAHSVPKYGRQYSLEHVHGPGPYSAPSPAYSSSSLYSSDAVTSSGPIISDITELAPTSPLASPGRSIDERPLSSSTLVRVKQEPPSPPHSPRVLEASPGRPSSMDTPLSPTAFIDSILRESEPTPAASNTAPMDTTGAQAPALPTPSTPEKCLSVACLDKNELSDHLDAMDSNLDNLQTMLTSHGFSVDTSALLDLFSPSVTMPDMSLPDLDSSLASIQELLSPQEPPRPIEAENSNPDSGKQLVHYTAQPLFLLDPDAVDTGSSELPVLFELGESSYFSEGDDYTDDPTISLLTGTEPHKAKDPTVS

[13] = target: T4, Oxysterols receptor LXR-beta (Homo sapiens, UniProt P55055); assay: LXR agonists, Gal4 luciferase reporter, dose response, counter-screen for ssDAF-12 agonist project, cell-based, luminescence, HEK293, S. stercoralis campaign (AID 720737); assay type: functional; details: read-out: IC50 (the source's name)
T4 sequence (P55055 whole entry): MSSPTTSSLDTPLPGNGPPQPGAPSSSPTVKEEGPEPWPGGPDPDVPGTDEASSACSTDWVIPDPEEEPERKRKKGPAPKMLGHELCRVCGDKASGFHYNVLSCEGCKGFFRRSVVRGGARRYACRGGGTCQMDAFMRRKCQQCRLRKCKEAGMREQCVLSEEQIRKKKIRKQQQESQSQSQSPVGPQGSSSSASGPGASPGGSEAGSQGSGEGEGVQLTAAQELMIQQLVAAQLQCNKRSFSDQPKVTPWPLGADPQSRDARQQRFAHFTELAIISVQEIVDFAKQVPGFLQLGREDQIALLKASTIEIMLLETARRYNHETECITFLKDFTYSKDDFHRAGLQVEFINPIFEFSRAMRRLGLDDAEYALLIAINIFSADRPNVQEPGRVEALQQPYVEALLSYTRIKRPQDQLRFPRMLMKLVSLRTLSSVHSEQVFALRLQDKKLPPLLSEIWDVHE

[14] = Luminescence-based cell-based high throughput dose response assay to identify activators of the DAF-12 from the parasite S. stercoralis (ssDAF-12).; assay type: functional
H9c2 = assay: cells; assay type: functional, cell-based; details: Rattus norvegicus, H9c2, Myocardium;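 note: confirmatory concentration-response retest of ultra-high-throughput screening hits for modulation of myocardial damage; cell death induced by hydrogen peroxide oxidative stress; compound pretreatment for 60 min then peroxide exposure for 2 h; potency is for protecting the cells against peroxide damage rather than for killing them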
Fatty acid synthase [15] = target: T5, Fatty acid synthase (Homo sapiens, UniProt P49327); assay: inhibition of human FAS-TE enzyme activity – biochemical, kinetic fluorescence intensity, dose response (AID 624326); assay type: functional;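 note: rate of fluorescence rise from hydrolysis of a fluorogenic O-methyl fluorescein ester substrate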
INS1 = assay: INS-1E survival protection against cytokine death – cell-based, luminescence, retest, dose response (AID 449756); assay type: functional; details: Rattus norvegicus;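 note: cell death triggered by IL-1 beta plus TNF-alpha plus IFN-gamma mixture; protective hits raise ATP signal compared with cytokine alone wells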
Fatty acid synthase [16] = target: T5, Fatty acid synthase; assay: inhibition of human FAS-TE enzyme activity – biochemical, endpoint fluorescence intensity, uHTS hits, dose response (AID 624327); assay type: functional;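 note: fluorescence from hydrolysis of an O-methyl fluorescein acyl ester substrate by the enzyme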
[17] = NIH-3T3 fibroblast cytotoxicity, dose response, cytotoxicity control, cell-based, fluorescence, Alamar Blue, secondary assay (AID 2327); assay type: functional;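 note: NIH-3T3 mouse fibroblasts cultured with fluconazole at 8 µg/mL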
[18] = alpha-synuclein stem-loop luciferase translation blockers – H4 neuroglioma cells, luminescence, confirmation (AID 1988); assay type: functional, cell-based
[19] = HEK-293T viability loss after treatment – luminescence, T-cell screen hits, cytotoxicity control for TCR NF-kB inhibitor project, dose response (AID 489026); assay type: functional, cell-based;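 note: cells exposed to compound about 14 hours before the viability readout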
[20] = luciferase reporter signal suppression in cells – H4 neuroglioma cells, luminescence, dose response (AID 1990); assay type: functional, cell-based
[21] = Luminescence Cell-Based Dose Response HTS to Identify Inhibitors of 5'UTR Stem-Loop Driven Prion Protein mRNA Translation in H4 Neuroglioblastoma Cells. [Related pubchem assays: 1827 (Project Summary), 1813 (Primary HTS)]; assay type: functional
[22] = fluconazole-exposed Candida albicans growth modulators – fluorescence, retest, confirmation (AID 2467); assay type: functional, cell-based

Sequence of DNA dC->dU-editing enzyme APOBEC-3A (P31941 whole entry): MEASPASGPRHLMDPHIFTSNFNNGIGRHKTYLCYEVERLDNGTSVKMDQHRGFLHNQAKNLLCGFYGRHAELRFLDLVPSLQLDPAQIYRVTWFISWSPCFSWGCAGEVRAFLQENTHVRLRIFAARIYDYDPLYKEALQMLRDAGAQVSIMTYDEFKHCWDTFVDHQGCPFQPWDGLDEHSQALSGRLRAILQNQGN
Sequence of DNA dC->dU-editing enzyme APOBEC-3G (Q9HC16 whole entry): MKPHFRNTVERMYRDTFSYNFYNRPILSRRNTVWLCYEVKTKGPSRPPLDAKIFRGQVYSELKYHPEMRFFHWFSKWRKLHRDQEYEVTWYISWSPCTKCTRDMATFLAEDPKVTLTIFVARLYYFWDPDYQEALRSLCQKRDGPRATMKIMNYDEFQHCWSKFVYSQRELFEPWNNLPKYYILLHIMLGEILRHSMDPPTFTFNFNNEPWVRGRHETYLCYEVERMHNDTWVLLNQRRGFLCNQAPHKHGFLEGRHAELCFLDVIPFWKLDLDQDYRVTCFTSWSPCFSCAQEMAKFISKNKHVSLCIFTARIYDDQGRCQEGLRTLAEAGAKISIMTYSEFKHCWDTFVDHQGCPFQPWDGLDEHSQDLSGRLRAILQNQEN
T5 sequence (P49327 whole entry): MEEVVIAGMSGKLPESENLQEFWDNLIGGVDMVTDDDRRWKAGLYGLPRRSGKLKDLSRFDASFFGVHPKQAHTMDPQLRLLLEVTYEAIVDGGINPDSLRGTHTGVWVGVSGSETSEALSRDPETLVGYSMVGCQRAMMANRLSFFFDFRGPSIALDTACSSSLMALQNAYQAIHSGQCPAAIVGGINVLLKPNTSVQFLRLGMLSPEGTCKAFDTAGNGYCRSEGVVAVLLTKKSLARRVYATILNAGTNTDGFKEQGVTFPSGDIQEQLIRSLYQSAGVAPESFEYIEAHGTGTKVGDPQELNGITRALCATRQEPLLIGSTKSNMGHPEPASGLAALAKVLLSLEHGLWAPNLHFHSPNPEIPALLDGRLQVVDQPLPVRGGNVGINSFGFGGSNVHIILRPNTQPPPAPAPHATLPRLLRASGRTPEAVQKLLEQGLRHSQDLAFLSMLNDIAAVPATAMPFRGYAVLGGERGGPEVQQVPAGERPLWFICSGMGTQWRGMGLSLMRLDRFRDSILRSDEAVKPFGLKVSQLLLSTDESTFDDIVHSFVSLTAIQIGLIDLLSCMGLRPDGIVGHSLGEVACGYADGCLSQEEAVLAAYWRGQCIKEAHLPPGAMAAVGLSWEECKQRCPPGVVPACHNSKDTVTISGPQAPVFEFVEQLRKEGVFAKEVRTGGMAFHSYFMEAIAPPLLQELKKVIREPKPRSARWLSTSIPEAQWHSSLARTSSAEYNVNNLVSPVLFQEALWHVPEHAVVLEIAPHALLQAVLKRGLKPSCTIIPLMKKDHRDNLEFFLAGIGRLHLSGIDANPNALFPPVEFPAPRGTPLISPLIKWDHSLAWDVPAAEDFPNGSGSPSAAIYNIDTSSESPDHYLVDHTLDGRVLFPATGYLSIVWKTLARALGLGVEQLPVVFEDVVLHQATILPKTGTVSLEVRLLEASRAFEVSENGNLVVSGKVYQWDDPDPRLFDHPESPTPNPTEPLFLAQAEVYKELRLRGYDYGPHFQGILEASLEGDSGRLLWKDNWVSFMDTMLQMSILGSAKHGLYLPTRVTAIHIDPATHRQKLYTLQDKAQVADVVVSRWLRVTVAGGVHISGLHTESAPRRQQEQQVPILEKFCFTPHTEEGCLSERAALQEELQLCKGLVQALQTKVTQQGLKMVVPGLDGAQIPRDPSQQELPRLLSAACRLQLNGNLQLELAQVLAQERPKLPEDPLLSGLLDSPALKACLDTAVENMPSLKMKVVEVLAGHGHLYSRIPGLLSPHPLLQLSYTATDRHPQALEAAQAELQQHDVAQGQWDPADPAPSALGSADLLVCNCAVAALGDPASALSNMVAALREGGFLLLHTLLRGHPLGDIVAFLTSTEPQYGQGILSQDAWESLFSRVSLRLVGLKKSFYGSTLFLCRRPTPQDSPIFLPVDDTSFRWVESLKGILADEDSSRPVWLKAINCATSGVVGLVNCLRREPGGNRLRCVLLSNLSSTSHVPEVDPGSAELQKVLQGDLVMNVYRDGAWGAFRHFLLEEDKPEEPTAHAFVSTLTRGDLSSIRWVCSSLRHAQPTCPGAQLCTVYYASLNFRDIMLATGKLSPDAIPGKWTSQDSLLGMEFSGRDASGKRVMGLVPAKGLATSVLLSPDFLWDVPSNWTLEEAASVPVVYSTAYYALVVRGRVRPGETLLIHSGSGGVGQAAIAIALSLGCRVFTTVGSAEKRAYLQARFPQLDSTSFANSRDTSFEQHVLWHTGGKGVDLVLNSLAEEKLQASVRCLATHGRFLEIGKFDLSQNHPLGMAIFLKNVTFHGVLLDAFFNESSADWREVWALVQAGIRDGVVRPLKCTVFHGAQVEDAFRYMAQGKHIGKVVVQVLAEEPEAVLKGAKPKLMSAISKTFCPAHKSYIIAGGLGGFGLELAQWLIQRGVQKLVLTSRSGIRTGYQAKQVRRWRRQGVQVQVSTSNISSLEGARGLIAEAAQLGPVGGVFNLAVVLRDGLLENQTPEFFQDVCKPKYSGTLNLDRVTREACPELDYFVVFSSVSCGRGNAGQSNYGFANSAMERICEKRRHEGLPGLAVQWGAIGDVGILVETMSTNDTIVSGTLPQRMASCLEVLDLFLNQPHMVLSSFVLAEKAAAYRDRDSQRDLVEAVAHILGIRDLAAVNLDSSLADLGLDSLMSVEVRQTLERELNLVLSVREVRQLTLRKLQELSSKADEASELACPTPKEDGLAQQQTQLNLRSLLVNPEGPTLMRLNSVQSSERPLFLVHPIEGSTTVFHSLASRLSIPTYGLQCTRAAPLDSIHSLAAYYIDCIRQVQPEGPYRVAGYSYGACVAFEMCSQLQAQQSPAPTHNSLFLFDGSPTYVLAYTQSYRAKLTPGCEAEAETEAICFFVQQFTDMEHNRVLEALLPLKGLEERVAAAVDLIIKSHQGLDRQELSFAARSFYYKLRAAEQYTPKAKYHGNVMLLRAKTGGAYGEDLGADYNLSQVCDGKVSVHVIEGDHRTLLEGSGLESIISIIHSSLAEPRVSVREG
Sequence of Eukaryotic translation initiation factor 4E (P63073 whole entry): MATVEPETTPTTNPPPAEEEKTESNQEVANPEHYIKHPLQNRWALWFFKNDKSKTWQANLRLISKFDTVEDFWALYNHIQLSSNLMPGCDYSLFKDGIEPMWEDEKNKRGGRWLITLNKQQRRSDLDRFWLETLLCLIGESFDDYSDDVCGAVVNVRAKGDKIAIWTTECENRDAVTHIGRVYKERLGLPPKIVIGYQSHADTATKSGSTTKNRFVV
Sequence of G-protein coupled receptor 55 (Q9Y2T6 whole entry): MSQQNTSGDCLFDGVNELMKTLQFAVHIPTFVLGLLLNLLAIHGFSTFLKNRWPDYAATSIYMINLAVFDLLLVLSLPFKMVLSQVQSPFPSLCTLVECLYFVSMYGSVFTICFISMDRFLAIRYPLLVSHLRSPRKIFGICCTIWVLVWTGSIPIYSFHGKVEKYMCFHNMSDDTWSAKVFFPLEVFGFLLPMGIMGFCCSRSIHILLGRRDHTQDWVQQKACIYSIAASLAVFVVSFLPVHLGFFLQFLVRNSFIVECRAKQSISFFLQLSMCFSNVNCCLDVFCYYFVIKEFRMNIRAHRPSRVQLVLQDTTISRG

With COc1ccc(CC(=O)Nc2ccc(-c3nnc(-c4ccccc4)o3)cc2)cc1OC the IC50 [1] was > 64 µM (inactive).

For O=C(NNC1=C(C(=O)C(F)(F)F)CCC1)c1ccccc1Cl, the CC50 [2] was > 20 µM (active) and the CC50 [3] was 13.6 µM (active).

For Cc1ccc(S(=O)(=O)Nc2nc3ccc(S(=O)(=O)N4CCCC4)cc3s2)cc1, the IC50 (Aminopeptidase N) was 53.5 µM (active).

For Cc1cccc(OCC(=O)Nc2ccc(S(=O)(=O)N3CCCC3)cc2)c1, the IC50 (Bcl-2-like protein 10) was > 100 µM (inactive).

In the case of CCCCCn1c(C(Cc2ccccc2)NC(C)=O)nc2ccccc21 (centres undefined), the IC50 [4] is reported as 4.08 µM (active).

With Cc1n(CC(O)COCc2ccccc2)c2ccccc2[n+]1C (centres undefined) the IC50 [5] was 5.05 µM (active) and the IC50 [6] was 2.82 µM (active).

In the case of Cc1nc2c(C(=O)N3CCCCC3)cnn2c(C)c1Cc1ccccc1F, the EC50 [7] is reported as < 0.1 µM (active), the EC50 [8] is reported as 0.267 µM (active) and the EC50 [9] is reported as 0.57 µM (active). For the same molecule, the EC50 [10] was > 12 µM (not active).

For Clc1ccc2nc(CN3CCCc4ccccc43)cn2c1, the IC50 (Bcl-2-like protein 10) was 72.5 µM (inactive).

With O=C(CN1CCC(NC(=O)c2cccc(F)c2)CC1)Nc1ccc(Br)cc1 the IC50 (cells) was 47.8 µM (active).

In the case of CCCn1nc(NC(=O)COC)c2cc3cc(C)ccc3nc21, the EC50 [7] is reported as 12.9 µM (active), the IC50 [5] is reported as 2.89 µM (active) and the EC50 [11] is reported as 3.88 µM (active). For the same molecule, the IC50 [6] was 2.71 µM (active) and the EC50 (H4) was > 120 µM (inconclusive).

For S=C(Nc1cccc(Cl)c1Cl)N1CCC2(CC1)OCCO2, the IC50 [1] was 50 µM (inactive).

For O=C(C[n+]1cc(-c2ccc(F)cc2)n2c1CCC2)c1cccs1, the EC50 [7] was 0.136 µM (inconclusive), the EC50 [11] was < 0.1 µM (active) and the EC50 [8] was > 12 µM (not active). The EC50 [9] was 1.06 µM (active), the EC50 (H4) was 29.9 µM (inconclusive) and the EC50 [10] was 3.26 µM (active).

In the case of CCC(C)Sc1nc2c3ccccc3nc-2c(O)n1C (centres undefined), the EC50 [12] is reported as > 260 µM (inactive), the EC50 [13] is reported as > 67.5 µM (inactive) and the IC50 [14] is reported as > 67.5 µM (inactive).

With O=C(COc1ccc(F)cc1)N/N=C/c1cccc2cccnc12 the IC50 (H9c2) was 20.8 µM (active), the IC50 (cells) was 17.2 µM (active) and the CC50 [3] was 24.8 µM (active).

In the case of O=C(CNC(=O)c1ccccc1)N/N=C/c1cc(Br)ccc1O, the IC50 (Fatty acid synthase [15]) is reported as 10.2 µM (active), the AC50 (INS1) is reported as 3.5 µM (active) and the IC50 (Aminopeptidase N) is reported as 22.6 µM (active). The IC50 (Fatty acid synthase [16]) was 12.7 µM (active).

In the case of CC[n+]1cc(C)ccc1C=Cc1ccc(N(C)C)cc1, the EC50 [17] is reported as 58.6 µM (active), the IC50 [5] is reported as 4.02 µM (active) and the EC50 [18] is reported as 10.4 µM (active). For the same molecule, the IC50 [19] was > 80 µM (inactive), the EC50 [20] was 11.7 µM (active) and the EC50 [21] was 65.4 µM (active). The IC50 [6] was 2.73 µM (active) and the EC50 [22] was 1.25 µM (active).
